Results published in ChEMBL document CHEMBL1697731, “Cheminformatics analysis of assertions mined from literature that describe drug-induced liver injury in different species” (Chem Res Toxicol, 2010).

Key:
Hepatotoxicity [1] = assay: Literature-mined compound from Fourches et al multi-species drug-induced liver injury (DILI) dataset, effect in humans; conditions: human
Hepatotoxicity [2] = assay: Literature-mined compound from Fourches et al multi-species drug-induced liver injury (DILI) dataset, effect in rodents; conditions: rodentia
Hepatotoxicity [3] = assay: Literature-mined compound from Fourches et al multi-species drug-induced liver injury (DILI) dataset, effect in non-rodents

Molecule | Hepatotoxicity (Hepatotoxicity [1]) | Hepatotoxicity (Hepatotoxicity [2]) | Hepatotoxicity (Hepatotoxicity [3]) | Hepatotoxicity (Hepatotoxicity [1]; Liver) | Hepatotoxicity (Hepatotoxicity [2]; Liver) | Hepatotoxicity (Hepatotoxicity [3]; Liver)
CC/C=C\C/C=C\C/C=C\C/C=C\C/C=C\CCCC(=O)O [ICOSAPENT] | drug-induced liver injury reported | drug-induced liver injury reported | no drug-induced liver injury reported | – | – | –
CC(=O)Nc1ccc(OC(=O)c2ccccc2OC(C)=O)cc1 [BENORILATE] | no drug-induced liver injury reported | drug-induced liver injury reported | no drug-induced liver injury reported | – | – | –
CN(C)CCOC(c1ccccc1)c1ccccc1 [DIPHENHYDRAMINE] | – | – | – | no drug-induced liver injury reported | drug-induced liver injury reported | no drug-induced liver injury reported
COc1ncnc(NS(=O)(=O)c2ccc(N)cc2)c1OC [SULFADOXINE] | no drug-induced liver injury reported | no drug-induced liver injury reported | drug-induced liver injury reported | – | – | –
Cc1ccc(S(=O)(=O)NC(=O)NN2CC3CCCC3C2)cc1 (centres undefined) [GLICLAZIDE] | drug-induced liver injury reported | no drug-induced liver injury reported | no drug-induced liver injury reported | – | – | –
CN1C(C(=O)Nc2ccccn2)=C(O)c2sc(Cl)cc2S1(=O)=O [LORNOXICAM] | drug-induced liver injury reported | no drug-induced liver injury reported | no drug-induced liver injury reported | – | – | –
CN1CCN(C2=Nc3cc(Cl)ccc3Nc3ccccc32)CC1 [CLOZAPINE] | drug-induced liver injury reported | no drug-induced liver injury reported | no drug-induced liver injury reported | – | – | –
CCc1oc2ccccc2c1C(=O)c1cc(I)c(O)c(I)c1 [BENZIODARONE] | no drug-induced liver injury reported | drug-induced liver injury reported | no drug-induced liver injury reported | – | – | –
C/C(=C\c1csc(C)n1)[C@@H]1C[C@@H]2O[C@]2(C)CCC[C@H](C)[C@H](O)[C@@H](C)C(=O)C(C)(C)[C@@H](O)CC(=O)N1 [IXABEPILONE] | drug-induced liver injury reported | no drug-induced liver injury reported | no drug-induced liver injury reported | – | – | –
O=C(O)c1cccnc1Nc1cccc(C(F)(F)F)c1 [NIFLUMIC ACID] | no drug-induced liver injury reported | drug-induced liver injury reported | no drug-induced liver injury reported | – | – | –
Cc1ccc(-c2cc(C(F)(F)F)nn2-c2ccc(S(N)(=O)=O)cc2)cc1 [CELECOXIB] | – | – | – | drug-induced liver injury reported | drug-induced liver injury reported | no drug-induced liver injury reported
NC(=O)N1c2ccccc2C=Cc2ccccc21 [CARBAMAZEPINE] | drug-induced liver injury reported | drug-induced liver injury reported | no drug-induced liver injury reported | – | – | –
CCCCNc1cc(C(=O)O)cc(S(N)(=O)=O)c1Oc1ccccc1 [BUMETANIDE] | no drug-induced liver injury reported | no drug-induced liver injury reported | drug-induced liver injury reported | – | – | –
NC1=NC(=O)C(c2ccccc2)O1 (centres undefined) [PEMOLINE] | drug-induced liver injury reported | no drug-induced liver injury reported | no drug-induced liver injury reported | – | – | –
COC(=O)c1ccccc1O [METHYL SALICYLATE] | no drug-induced liver injury reported | no drug-induced liver injury reported | drug-induced liver injury reported | – | – | –
Nc1c(CC(=O)O)cccc1C(=O)c1ccc(Br)cc1 [BROMFENAC] | drug-induced liver injury reported | no drug-induced liver injury reported | no drug-induced liver injury reported | – | – | –
CCC1=C[C@@H]2CN(C1)Cc1c([nH]c3ccccc13)[C@@](C(=O)OC)(c1cc3c(cc1OC)N(C)[C@H]1[C@@](O)(C(=O)OC)[C@H](OC(C)=O)[C@]4(CC)C=CCN5CC[C@]31[C@@H]54)C2 [VINORELBINE] | drug-induced liver injury reported | drug-induced liver injury reported | no drug-induced liver injury reported | – | – | –
CN1C(=O)OC(C)(C)C1=O [TRIMETHADIONE] | drug-induced liver injury reported | drug-induced liver injury reported | no drug-induced liver injury reported | – | – | –
Oc1ncnc2[nH]ncc12 [ALLOPURINOL] | drug-induced liver injury reported | drug-induced liver injury reported | no drug-induced liver injury reported | – | – | –

Molecule | Hepatotoxicity (Hepatotoxicity [1]) | Hepatotoxicity (Hepatotoxicity [2]) | Hepatotoxicity (Hepatotoxicity [3]) | Hepatotoxicity (Hepatotoxicity [1]; Liver) | Hepatotoxicity (Hepatotoxicity [2]; Liver) | Hepatotoxicity (Hepatotoxicity [3]; Liver)
COc1cnc(NS(=O)(=O)c2ccc(N)cc2)nc1 | drug-induced liver injury reported | no drug-induced liver injury reported | no drug-induced liver injury reported | – | – | –
CCN(CC)CCNC(=O)c1ccc(N)cc1 [PROCAINAMIDE] | drug-induced liver injury reported | drug-induced liver injury reported | no drug-induced liver injury reported | – | – | –
CN(C)/N=N/c1[nH]cnc1C(N)=O [DACARBAZINE] | drug-induced liver injury reported | no drug-induced liver injury reported | no drug-induced liver injury reported | – | – | –
C[S+](C)[O-] [DIMETHYL SULFOXIDE] | drug-induced liver injury reported | drug-induced liver injury reported | drug-induced liver injury reported | – | – | –
NC[C@@H]1O[C@H](O[C@H]2[C@@H](O)[C@H](O[C@@H]3[C@@H](O)[C@H](N)C[C@H](N)[C@H]3O[C@H]3O[C@H](CO)[C@@H](O)[C@H](O)[C@H]3N)O[C@@H]2CO)[C@H](N)[C@@H](O)[C@@H]1O [PAROMOMYCIN] | no drug-induced liver injury reported | drug-induced liver injury reported | no drug-induced liver injury reported | – | – | –
COc1c(C)c2c(c(O)c1C/C=C(\C)CCC(=O)OCCN1CCOCC1)C(=O)OC2 [MYCOPHENOLATE MOFETIL] | drug-induced liver injury reported | no drug-induced liver injury reported | no drug-induced liver injury reported | – | – | –
Nc1nnc(-c2cccc(Cl)c2Cl)c(N)n1 [LAMOTRIGINE] | drug-induced liver injury reported | no drug-induced liver injury reported | no drug-induced liver injury reported | – | – | –
CCOc1nc2cccc(C(=O)OC(C)OC(=O)OC3CCCCC3)c2n1Cc1ccc(-c2ccccc2-c2nnn[nH]2)cc1 (centres undefined) [CANDESARTAN CILEXETIL] | drug-induced liver injury reported | drug-induced liver injury reported | no drug-induced liver injury reported | – | – | –
CC(C)[C@@H]1NC(=O)[C@H](CCCCN)NC(=O)[C@@H](Cc2c[nH]c3ccccc23)NC(=O)[C@H](Cc2ccc(O)cc2)NC(=O)[C@@H](NC(=O)[C@H](N)Cc2ccc3ccccc3c2)CSSC[C@@H](C(=O)N[C@H](C(N)=O)[C@@H](C)O)NC1=O [LANREOTIDE] | drug-induced liver injury reported | no drug-induced liver injury reported | no drug-induced liver injury reported | – | – | –
O=[N+]([O-])O[C@@H]1CO[C@H]2[C@@H]1OC[C@@H]2O [ISOSORBIDE MONONITRATE] | drug-induced liver injury reported | no drug-induced liver injury reported | no drug-induced liver injury reported | – | – | –
CCCCNc1ccc(C(=O)OCCN(C)C)cc1 [TETRACAINE] | no drug-induced liver injury reported | drug-induced liver injury reported | no drug-induced liver injury reported | – | – | –
MANGAFODIPIR TRISODIUM | drug-induced liver injury reported | no drug-induced liver injury reported | no drug-induced liver injury reported | – | – | –
CN1CCC(=C2c3ccccc3C=Cc3ccccc32)CC1 [CYPROHEPTADINE] | drug-induced liver injury reported | drug-induced liver injury reported | no drug-induced liver injury reported | – | – | –
C[C@H](N)Cc1ccccc1 [DEXTROAMPHETAMINE] | no drug-induced liver injury reported | drug-induced liver injury reported | no drug-induced liver injury reported | – | – | –
O=P(O)(O)C(Cl)(Cl)P(=O)(O)O [CLODRONIC ACID] | no drug-induced liver injury reported | drug-induced liver injury reported | no drug-induced liver injury reported | – | – | –
O=S(=O)(c1cccc2cnccc12)N1CCCNCC1 [FASUDIL] | drug-induced liver injury reported | drug-induced liver injury reported | no drug-induced liver injury reported | – | – | –
CC1(C)S[C@@H]2[C@H](NC(=O)[C@H](NC(=O)N3CCNC3=O)c3ccccc3)C(=O)N2[C@H]1C(=O)O [AZLOCILLIN] | drug-induced liver injury reported | no drug-induced liver injury reported | no drug-induced liver injury reported | – | – | –
Cl.Nc1c2c(nc3ccccc13)CCCC2 [TACRINE HYDROCHLORIDE] | – | – | – | no drug-induced liver injury reported | drug-induced liver injury reported | no drug-induced liver injury reported
O=C(O)/C=C/c1ccc(Cn2ccnc2)cc1 [OZAGREL] | no drug-induced liver injury reported | drug-induced liver injury reported | no drug-induced liver injury reported | – | – | –
